In patent US20060142178A1, “Method of treating cancer” (priority 2002, published 2006):

Experiments:
Type in all cases: biochemical
PKA catalytic subunit = biological target: T1, PKA catalytic subunit (Bos taurus, UniProt P00517); assay: PKA assay (counter screen); conditions: Kemptide substrate; read-out: Counter screens IC50 (μM) PKA
T1 construct: purchased UBI (Upstate Biotechnology, Inc.) 14-114
Protocol: The reactions were stopped by adding 50 μl of 100 mM EDTA and 100 mM sodium pyrophosphate and mixing.
After the final wash, the filters were allowed to air dry.

Human Akt3 = biological target: T2, Human Akt3 (Homo sapiens, UniProt Q9Y243); assay: Akt kinase assay, GSK3 peptide substrate, Akt3; conditions: activated full length Akt3, GSK3 peptide substrate
T2 construct: a middle T tag was added to the 5′ end of the full length Akt3 clone; biotin tag (from pS2neo vector); made in house; host or cells: Drosophila S2 cells
T2 sequence (Q9Y243 whole entry): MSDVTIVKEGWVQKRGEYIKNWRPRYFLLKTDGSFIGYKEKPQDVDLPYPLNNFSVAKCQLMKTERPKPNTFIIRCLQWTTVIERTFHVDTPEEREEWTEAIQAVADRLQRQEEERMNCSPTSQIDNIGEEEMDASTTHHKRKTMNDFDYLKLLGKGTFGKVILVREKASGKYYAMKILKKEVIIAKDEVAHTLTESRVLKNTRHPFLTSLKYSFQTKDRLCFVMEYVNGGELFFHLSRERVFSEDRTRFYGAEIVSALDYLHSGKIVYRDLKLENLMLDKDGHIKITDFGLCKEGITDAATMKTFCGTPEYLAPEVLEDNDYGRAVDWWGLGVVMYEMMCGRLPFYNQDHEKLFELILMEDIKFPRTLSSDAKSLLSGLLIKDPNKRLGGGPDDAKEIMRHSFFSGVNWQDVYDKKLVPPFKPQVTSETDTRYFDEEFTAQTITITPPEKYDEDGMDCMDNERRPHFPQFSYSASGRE
Protocol: (§1) Akt and Akt pleckstrin homology domain deletions were activated (Alessi et al. Current Biology 7:261-269) in a reaction containing 10 nM PDK1 (Upstate Biotechnology, Inc.), lipid vesicles (10 μM phosphatidylinositol-3,4,5-trisphosphate—Metreya, Inc, 100 μM phosphatidylcholine and 100 μM phosphatidylserine—Avanti Polar lipids, Inc.) and activation buffer (50 mM Tris pH7.4, 1.0 mM DTT, 0.1 mM EGTA, 1.0 μM Microcystin-LR, 0.1 mM ATP, 10 mM MgCl2, 333 μg/ml BSA and 0.1 mM EDTA). The reaction was incubated at 22° C. for 4 hours. Aliquots were flash frozen in liquid nitrogen.
(§2) Activated AKT isoforms and pleckstrin homology domain deletion constructs were assayed utilizing a GSK-derived biotinylated peptide substrate. The extent of peptide phosphorylation was determined by Homogeneous Time Resolved Fluorescence […] using a lanthanide chelate (Lance)-coupled monoclonal antibody specific for the phosphopeptide in combination with a streptavidin-linked allophycocyanin (SA-APC) fluorophore which will bind to the biotin moiety on the peptide. […]
(§3) The reaction is assembled by adding 16 μL of the ATP/MgCl2 working solution to the appropriate wells of a 96-well microtiter plate. […] The stopped reactions were incubated at room temperature for at least 30 min and then read on the Discovery instrument. […]

PKC = PKC assay (counter screen); conditions: Myelin basic protein substrate; read-out: Counter screens IC50 (μM) PKC
Protocol: Each PKC assay consists of the following components:
The assays were assembled in 96 deep-well assay plates. Inhibitor or vehicle (10 μl) was added to 5.0 μl of ^33P-ATP. Reactions were initiated with the addition of the PKC/Myelin Basic Protein working solution and mixing. Reactions were incubated at 30° C. for 20 min. The reactions were stopped by adding 50 μl of 100 mM EDTA and 100 mM sodium pyrophosphate and mixing. Phosphorylated Mylein Basic Protein was collected on PVDF membranes in 96 well filter plates and quantitated by scintillation counting.

Human Akt2 = biological target: T3, Human Akt2 (Homo sapiens, UniProt P31751); assay: Akt kinase assay, GSK3 peptide substrate, Akt2; conditions: activated full length Akt2, GSK3 peptide substrate
T3 construct: a middle T tag was added to the 5′ end of the full length Akt2 using the PCR primer; biotin tag (from pS2neo vector); made in house; host or cells: Drosophila S2 cells
T3 sequence (P31751 whole entry): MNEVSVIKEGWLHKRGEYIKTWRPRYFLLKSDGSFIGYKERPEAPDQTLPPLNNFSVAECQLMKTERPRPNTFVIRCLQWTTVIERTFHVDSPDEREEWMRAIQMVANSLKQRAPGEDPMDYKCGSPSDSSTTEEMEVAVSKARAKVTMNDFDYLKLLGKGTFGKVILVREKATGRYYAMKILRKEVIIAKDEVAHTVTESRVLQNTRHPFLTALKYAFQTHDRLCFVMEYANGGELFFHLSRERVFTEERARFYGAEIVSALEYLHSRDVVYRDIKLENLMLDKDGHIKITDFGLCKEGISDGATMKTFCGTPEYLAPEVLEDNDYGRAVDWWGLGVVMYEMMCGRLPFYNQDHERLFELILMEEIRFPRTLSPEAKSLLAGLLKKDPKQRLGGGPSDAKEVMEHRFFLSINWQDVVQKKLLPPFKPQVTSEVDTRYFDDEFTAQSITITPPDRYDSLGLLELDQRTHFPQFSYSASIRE
Protocol: as §1, §2, §3

Human Akt1 = biological target: T4, Human Akt1 (Homo sapiens, UniProt P31749); assay: Akt kinase assay, GSK3 peptide substrate, Akt1; conditions: activated full length Akt1, GSK3 peptide substrate
T4 construct: a middle T tag was added to the 5′ end of the full length Akt1 gene; biotin tag (from pS2neo vector); made in house; host or cells: Drosophila S2 cells
T4 sequence (P31749 whole entry): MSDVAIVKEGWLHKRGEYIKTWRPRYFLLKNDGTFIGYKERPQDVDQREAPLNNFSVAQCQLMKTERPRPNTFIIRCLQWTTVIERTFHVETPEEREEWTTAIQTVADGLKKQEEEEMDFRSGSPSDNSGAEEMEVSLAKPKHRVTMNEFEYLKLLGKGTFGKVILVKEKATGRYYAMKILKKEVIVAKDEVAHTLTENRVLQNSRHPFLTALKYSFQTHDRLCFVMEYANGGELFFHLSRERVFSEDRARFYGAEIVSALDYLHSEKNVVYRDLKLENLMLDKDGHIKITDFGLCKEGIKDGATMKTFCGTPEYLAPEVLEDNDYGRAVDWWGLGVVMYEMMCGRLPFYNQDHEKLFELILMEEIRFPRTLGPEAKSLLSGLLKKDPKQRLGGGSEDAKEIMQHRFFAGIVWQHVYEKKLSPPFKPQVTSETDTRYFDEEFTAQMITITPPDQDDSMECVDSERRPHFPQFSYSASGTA
Protocol: as §1, §2, §3

ΔPH-Akt1 = biological target: T5, ΔPH-Akt1 (Homo sapiens, UniProt P31749); assay: Akt kinase assay, GSK3 peptide substrate, Akt1 delta PH; conditions: pleckstrin homology domain deleted Akt1, GSK3 peptide substrate
T5 construct: PCR deletion mutagenesis was done using the full length Akt1 gene in the pS2neo vector as template; biotin tag (from pS2neo vector); made in house; host or cells: Drosophila S2 cells
T5 sequence (P31749 with tags, fused parts or gaps): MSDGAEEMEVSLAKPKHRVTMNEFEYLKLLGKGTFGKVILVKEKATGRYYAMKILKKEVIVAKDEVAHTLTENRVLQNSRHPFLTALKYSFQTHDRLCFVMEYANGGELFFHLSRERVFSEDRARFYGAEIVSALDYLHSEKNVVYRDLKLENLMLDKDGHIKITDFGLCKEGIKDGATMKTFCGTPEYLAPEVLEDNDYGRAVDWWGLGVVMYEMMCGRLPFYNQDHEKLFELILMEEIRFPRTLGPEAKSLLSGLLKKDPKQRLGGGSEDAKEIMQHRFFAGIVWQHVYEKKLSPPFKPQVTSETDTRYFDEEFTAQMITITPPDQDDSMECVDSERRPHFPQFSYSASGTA

ΔPH-Akt2 = biological target: T6, ΔPH-Akt2 (Homo sapiens, UniProt P31751); assay: Akt kinase assay, GSK3 peptide substrate, Akt2 delta PH; conditions: pleckstrin homology domain deleted Akt2, GSK3 peptide substrate
T6 construct: PCR was performed using the full length Akt2 gene as template; biotin tag (from pS2neo vector); made in house; host or cells: Drosophila S2 cells
T6 sequence (P31751 with tags, fused parts or gaps): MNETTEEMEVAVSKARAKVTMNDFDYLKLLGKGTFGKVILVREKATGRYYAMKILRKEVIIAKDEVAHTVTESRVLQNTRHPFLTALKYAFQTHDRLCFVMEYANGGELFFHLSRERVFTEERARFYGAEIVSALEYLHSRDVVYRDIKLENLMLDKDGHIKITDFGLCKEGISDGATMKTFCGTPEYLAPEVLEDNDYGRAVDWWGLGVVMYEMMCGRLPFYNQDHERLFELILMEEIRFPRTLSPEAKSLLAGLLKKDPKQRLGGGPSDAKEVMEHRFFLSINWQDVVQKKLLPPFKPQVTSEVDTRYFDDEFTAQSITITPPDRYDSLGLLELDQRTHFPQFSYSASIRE

Row | Structure (SMILES) | IC50 (PKA catalytic subunit) [µM] | IC50 (Human Akt3) [µM] | IC50 (PKC) [µM] | IC50 (Human Akt2) [µM] | IC50 (Human Akt1) [µM] | IC50 (ΔPH-Akt1) [µM] | IC50 (ΔPH-Akt2) [µM]
1 | COc1cc(-c2[nH]c(C3CCCN3C)nc2-c2ccncc2)ccc1Cl (stereo not shown) [Compound 19-11, 1-methyl-2-[5-(4-chloro-3-methoxyphenyl)-4-pyridin-4-yl-1H-imidazol-2-yl]-pyrrolidine] | 0.076 | 1.4 | 0.65 | > 50 | 51.7 | > 50 | 
2 | CN(C)CC(C)(C)CNc1nn2c(-c3ccccc3)nnc2cc1C1CCC1 [Compound 1, N′-(7-Cyclobutyl-3-phenyl-[1,2,4]triazolo[4,3-b]pyridazin-6-yl)-2,2,N,N-tetramethyl-propane-1,3-diamine] |  |  |  |  |  |  | > 100
3 | OCCOc1nn2c(-c3ccccc3)nnc2cc1-c1ccccc1 [Compound 8, 6-(2-Hydroxyethyl)oxy-3,7-diphenyl-[1,2,4]triazolo[4,3-b]pyridazine] |  | > 50 |  | > 50 |  | > 50 | 
